Changes are numbered by the printed parent chain.
Columns and labels:
c-Src protein = biological target: T1, c-Src protein (Mus musculus, UniProt P05480); test: Western blotting of separated liver tissue of the liver disease model mouse treated with c-Src inhibitor PP2 or control PP3; format: cell-based; conditions: FIG. 26C
T1 construct: from tissue; host or cells: liver tissue / hepatocytes of CCl4-treated BALB/C mice
Procedure: Particularly, a lysis buffer [50 mM Tris-HCl (pH 7.4), 1% NP40, 0.25% sodium dioxycholate, 150 mM NaCl, 1 mM EDTA], SDS (sodium dodecyl sulfate), Na3O4V and protease inhibitor cocktail (GenDepot) were added to the obtained liver tissue, which was left at 4° C. for 15 minutes to lyse the tissue. The lysate was centrifuged for 30 minutes under the conditions of 13,000 rpm and 4° C. to obtain a supernatant. The proteins present in the supernatant were quantified using BCA reagent (Thermo Scientifics). 4× sample buffer [4 ml of 100% glycerol, 2.4 ml of Tris-HCl (pH 6.8), 0.8 g of SDS, 4 mg of brominated phenol blue, 0.4 ml of β-mercaptoethanol and 3.1 ml of H2O, final volume: 10 ml] was added thereto, which was boiled at 100° C. for 5 minutes. SDS-PAGE was performed, and the proteins were transferred to a nitrocellulose membrane (Whatman). The membrane was pretreated in a solution containing 5% skim milk for 1 hour, and reacted with the antibodies against laminin (Abcam, UK), ACC1 (Cell Signalling, USA), SREBP1 precursor (Santa cruz, USA), mature SREBP1 (Santa cruz, USA), MTP (Santa cruz, USA), PPARα (Santa cruz, USA), pY^706STAT3 (Millipore, USA), STAT3 (Santa cruz, USA), α-tubulin (Sigma, USA) and TM4SF5 (J Clin Invest. 2008 April; 118(4): 1354-66) as the primary antibodies at 4° C. for 15 hours. […]

liver tissue [1] = test: Liver disease mouse model induced by carbon tetrachloride (CCl4); format: in vivo, BALB/C mice
Procedure: First, a mouse model in which liver disease was induced by intraperitoneally injecting carbon tetrachloride (CCl4) once a week for 1, 4 or 16 weeks at the concentration of 1 mg/kg to 4-week-old BALB/C mice (Orient Bio, Korea) was prepared.
On the other hand, after administering CCl4 to the TM4SF5 gene KO mouse prepared in Example <7-1> as described above, the liver tissue was obtained and Mason's trichrome staining was performed, and the results are shown in FIG. 22C. As a result, it was confirmed that the accumulation of collagen was decreased in the TM4SF5 gene KO mouse compared to the control group (FIG. 22C).

[2] = biological target: T2, TM4SF5 mutant, 124th to 129th amino acid residues (Homo sapiens, UniProt O14894, E129A/F128S/G125A/H127A/W124A/Y126S); test: Arginine binding to TM4SF5 mutants of the 124th to 129th amino acid residues; conditions: FIG. 15G
T2 construct: made in house
T2 sequence (O14894 1-197 W124A/G125A/Y126S/H127A/F128S/E129A): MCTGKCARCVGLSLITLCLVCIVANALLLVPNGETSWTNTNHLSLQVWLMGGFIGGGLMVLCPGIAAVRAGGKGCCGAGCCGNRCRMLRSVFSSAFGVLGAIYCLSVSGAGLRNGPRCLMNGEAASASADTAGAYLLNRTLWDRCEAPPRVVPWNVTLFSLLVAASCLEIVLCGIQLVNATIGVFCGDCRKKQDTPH
Procedure: (§1) First, HEK293FT cells (Thermo, USA) were prepared by culturing in 5% CO2 at 37° C. using DMEM containing 10% FBS and antibiotics. The prepared cells were distributed in 150 mm plates and cultured to the density of 60%, which were transfected with the construct expressing TM4SF5, MetaP2, Castrol, TM4SF1, TM4SF4 and TM4SF5 proteins constructed in Example 11 using PEI. Two days after the transfection, the desired protein was precipitated under the same conditions and methods as described in Example 11 using the beads coated with streptavidin. The precipitate was added with 10 μM [3H]-arginine (American radiolabeled chemicals, USA), followed by reaction at 4° C. for 1 hour. At this time, a sample in which 10 mM of L-arginine was added to the same amount of beads was used as the control. Upon completion of the reaction, the beads were washed 3 times with lysis buffer, to which 2 m ? of scintillation cocktail (Ultima gold, Perkin Elmer, USA) was added. The mixture was vortexed and analyzed using a liquid scintillation counter (Tri-Carb, Perkin Elmer, USA).
(§2) First, a short extracellular loop (SEL) fragment mutant comprising the 31st to 42nd amino acid residues from the N-terminus of the amino acid sequence constituting TM4SF5 protein (SEQ. ID. NO: 1) and a long extracellular loop (LEL) fragment mutant comprising the 113th to 157th amino acid residues from the N-terminus were prepared. […]

Castor1 protein = biological target: T3, Castor1 protein (Homo sapiens, UniProt Q8WTX7); test: [3H]-arginine binding to precipitated Castor1 protein
T3 construct: made in house; host or cells: HEK293FT cells, transient transfection with PEI, pull-down on streptavidin-coated beads
T3 sequence (Q8WTX7 1-329): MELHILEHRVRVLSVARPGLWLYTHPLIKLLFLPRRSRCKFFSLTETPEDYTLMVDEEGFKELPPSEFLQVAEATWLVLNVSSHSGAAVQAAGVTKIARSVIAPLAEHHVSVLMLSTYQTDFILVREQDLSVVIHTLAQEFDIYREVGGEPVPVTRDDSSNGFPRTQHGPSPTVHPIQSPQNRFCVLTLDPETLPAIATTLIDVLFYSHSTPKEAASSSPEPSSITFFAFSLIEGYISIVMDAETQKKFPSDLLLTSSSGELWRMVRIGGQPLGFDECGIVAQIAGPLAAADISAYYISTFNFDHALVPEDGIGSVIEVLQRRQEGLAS
Procedure: as §1

[3] = biological target: T4, short extracellular loop (SEL) mutant of TM4SF5 protein (Homo sapiens, UniProt O14894); test: Arginine binding to short extracellular loop (SEL) mutant of TM4SF5; conditions: FIG. 15F
T4 construct: a short extracellular loop (SEL) fragment mutant comprising the 31st to 42nd amino acid residues from the N-terminus; made in house
Procedure: as §1, §2

TM4SF5 protein = biological target: T5, TM4SF5 protein (Homo sapiens, UniProt O14894); test: [3H]-arginine binding to precipitated TM4SF5 protein (liquid scintillation)
T5 construct: in addition to the wild type of TM4SF5 protein (WT, full length); made in house; host or cells: HEK293FT cells, transient transfection with PEI, pull-down on streptavidin-coated beads
T5 sequence (O14894 1-197): T2 sequence (O14894 1-197 W124A/G125A/Y126S/H127A/F128S/E129A) with A124W, A125G, S126Y, A127H, S128F, A129E
Procedure: as §1
An experiment was performed to confirm whether the binding of TM4SF5 protein and arginine confirmed in Example <12-2> was concentration-dependent. The experiment was performed under the same conditions and methods as described in Example <12-2>, except that HEK293FT cells transformed with TM4SF5 protein were used and 0, 0.01, 0.05. 0.1 or 0.5 mM L-arginine was added.

[4] = High arginine diet for 10 weeks: body weight and liver fat (H&E); format: in vivo, mouse; conditions: for weight gain compared to the mouse fed a normal diet: high arginine diet 10 weeks, FIG. 17A
Procedure: Particularly, the TM4SF5 gene KO mouse prepared in Example <7-1> was fed L-arginine (40 g/kg of mouse body weight) for 10 weeks.
The liver tissue was extracted from the TM4SF5 gene KO mouse fed a high arginine diet in Example <13-1>, and H&E staining was performed using the method described above.

liver tissue [5] = test: Liver cancer induced by injecting diethylnitrosamine (DEN); format: in vivo; conditions: transgenic mouse
Procedure: The exacerbation process of liver disease was confirmed using the transgenic mouse as follows. Particularly, the transgenic mouse was induced with liver cancer by injecting diethylnitrosamine (DEN). The liver tissue was extracted from the mouse, and H&E staining was performed. As a result, it was confirmed that liver cancer was induced (FIG. 31A). It was also confirmed that the phosphorylation of STAT3 protein and the expression of laminin were increased as the expression of TM4SF5 protein increased (FIG. 31B).

[6] = system: STAT3 phosphorylation and laminin protein expression; test: Western blotting of separated liver tissue of the liver disease model mouse treated with IL-6; format: cell-based; conditions: FIG. 26A
Procedure: Particularly, a lysis buffer [50 mM Tris-HCl (pH 7.4), 1% NP40, 0.25% sodium dioxycholate, 150 mM NaCl, 1 mM EDTA], SDS (sodium dodecyl sulfate), Na3O4V and protease inhibitor cocktail (GenDepot) were added to the obtained liver tissue, which was left at 4° C. for 15 minutes to lyse the tissue. The lysate was centrifuged for 30 minutes under the conditions of 13,000 rpm and 4° C. to obtain a supernatant. The proteins present in the supernatant were quantified using BCA reagent (Thermo Scientifics). 4× sample buffer [4 ml of 100% glycerol, 2.4 ml of Tris-HCl (pH 6.8), 0.8 g of SDS, 4 mg of brominated phenol blue, 0.4 ml of β-mercaptoethanol and 3.1 ml of H2O, final volume: 10 ml] was added thereto, which was boiled at 100° C. for 5 minutes. SDS-PAGE was performed, and the proteins were transferred to a nitrocellulose membrane (Whatman). The membrane was pretreated in a solution containing 5% skim milk for 1 hour, and reacted with the antibodies against laminin (Abcam, UK), ACC1 (Cell Signalling, USA), SREBP1 precursor (Santa cruz, USA), mature SREBP1 (Santa cruz, USA), MTP (Santa cruz, USA), PPARα (Santa cruz, USA), pY^706STAT3 (Millipore, USA), STAT3 (Santa cruz, USA), α-tubulin (Sigma, USA) and TM4SF5 (J Clin Invest. 2008 April; 118(4): 1354-66) as the primary antibodies at 4° C. for 15 hours. Then, the membrane was reacted with the secondary antibody, and developed on an X-ray film using an ECL solution (Pierce, USA).
In addition, the separated liver tissue was treated with IL-6 and Western blotting was performed as described above to confirm whether the increased STAT3 phosphorylation and laminin protein expression were dependent on IL-6. […] Therefore, it was confirmed that the expressions of laminin and laminin γ2 were increased depending on TM4SF5 protein.

fat-related genes = test: Real-time PCR of fat-related genes in normal hepatocytes treated with IL-6; format: cell-based, C57BL/6 normal mouse; conditions: FIGS. 4B and 4C
SOCS3 gene = test: SOCS3 shRNA in primary hepatocytes, Western blotting; format: cell-based, mouse; conditions: FIG. 8E
From the text: The primary hepatocytes isolated from the normal mouse (52 weeks old) were transfected with SOCS3 (NM_174466) shRNA (shSOCS3, sense 5′ […]-3′ SEQ. ID. NO: 111; antisense 5′ […]-3′ SEQ. ID. NO: 112) under the same conditions and methods as described in Example <4-1> to prepare hepatocytes wherein the expression of SOCS3 gene was suppressed, and the expression changes of SREBP1 and SOCS3 proteins and the phosphorylation changes of STAT3 were confirmed by Western blotting.

[7] = administered for 4 or 16 weeks, FIG. 22A
[8] = primary hepatic epithelial cells

Compound: CC(C)(C)n1nc(-c2ccc(Cl)cc2)c2c(N)ncnc21 [PP2]
- expression of laminin protein (c-Src protein): suppressed
- phosphorylation of STAT3 protein (c-Src protein): suppressed

Compound: ClC(Cl)(Cl)Cl [CCl4, carbon tetrachloride]
- expression of TM4SF5 protein, phosphorylation of STAT3 protein and level of ECM in the liver tissue (liver tissue [1]; FIG. 23A): all increased
- accumulation of collagen, Mason's trichrome staining (liver tissue [1]; TM4SF5 gene KO mouse compared to the control group, FIG. 22C): decreased
- cells in the liver tissue, H&E and Mason's trichrome staining (liver tissue [1]; [7]): died
- collagen between the cells (liver tissue [1]; [7]): accumulated
- mRNA levels of elastin, laminin α2, α3, α5, γ2, and γ3 chains versus control group not treated (liver tissue [1]; administered for 4 or 16 weeks, FIG. 23B): higher

Compound: N=C(N)NCCC[C@H](N)C(=O)O [arginine, L-arginine]
- binding to TM4SF5 mutant of 124th to 129th residues [2]: not bound
- binding of Castor1 compared with control protein MetaP2 (Castor1 protein; FIG. 15B): more strongly
- binding to Castor1 protein (Castor1 protein; FIGS. 15B and 15C): directly bound
- binding to SEL mutant of TM4SF5 protein [3]: not bound
- concentration dependence of binding to TM4SF5 protein (TM4SF5 protein; 0, 0.01, 0.05, 0.1 or 0.5 mM L-arginine, FIGS. 15D and 15E): concentration-dependently
- binding to TM4SF5 protein (TM4SF5 protein; 10 μM [3H]-arginine, 4° C., 1 hour, FIGS. 15B and 15C): directly bound
- binding of TM4SF5 compared with control protein MetaP2 (TM4SF5 protein; FIG. 15B): more strongly
- binding of TM4SF5 compared with TM4SF1 or TM4SF4 (TM4SF5 protein; FIG. 15C): more strongly
- weight gain of each mouse in comparison to the starting point of the high arginine diet ([4]; TM4SF5 gene KO mouse, FIG. 17B): significantly decreased
- fat accumulation in the liver tissue, H&E staining ([4]; TM4SF5 gene KO mouse, FIG. 17C): relatively suppressed
- weight gain compared to the mouse fed a normal diet ([4]; TM4SF5 gene KO mouse): about 7%
- fatty liver, H&E staining of liver tissue ([4]; normal mouse, FIG. 17C): fatty liver was induced
- weight gain compared to the mouse fed a normal diet ([4]; normal mouse): about 25%

Compound: CCN(CC)N=O [diethylnitrosamine]
- liver cancer, H&E staining (liver tissue [5]; FIG. 31A): induced
- phosphorylation of STAT3 protein and expression of laminin (liver tissue [5]; FIG. 31B): increased

Compound: IL-6: a cytokine associated with fatty liver
- expression of collagen 1 [6]: increased
- level of laminin protein [6]: not changed
- phosphorylation of STAT3 protein [6]: increased
- expressions of Srebp1, Srebp2, Fasn, CD36, Fabp1, Vldlr and Ldlr, the fat-related genes (fat-related genes): increased

Compound: shSOCS3: SOCS3 shRNA, SEQ. ID. NO: 111 (sense) and 112 (antisense) (sense CAACAUCUCUGUCGGAAGAUU; antisense UCUUCCGACAGAGAUGUUGUU; listed as RNA, chemistry not given here)
- amount of SREBP1 protein (SOCS3 gene; [8]): decreases
- phosphorylation of STAT3 protein (SOCS3 gene; [8]): increases
- expression of SOCS3 gene (SOCS3 gene; primary hepatocytes): decreased
